Results on 22 molecules are retold here after patent US8906909B2 (Curis, Inc., priority 2009, dated 2014).

The subject of one series is H1993 cells. In words: Cell proliferation assay Method A (ATPlite), H1993. The class given is cell-based. To be noted: Homo sapiens, NCI-H1993, 72 hours, read-out: antiproliferative activity IC50, H1993. On the procedure: (§1) Cancer cell lines were plated at 5,000 to 10,000 per well in 96-well flat bottomed plates with various concentration of compounds. The cells were incubated with compounds for 72 hours in the presence of 0.5% of fetal bovine serum. Growth inhibition was accessed by adenosine triphosphate (ATP) content assay using Perkin Elmer ATPlite kit. ATPlite is an ATP monitoring system based on firefly luciferase. Briefly, 25 μl of mammalian cell lysis solution was added to 50 μl of phenol red-free culture medium per well to lyse the cells and stabilize the ATP. 25 μl of substrate solution was then added to the well and subsequently the luminescence was measured.

In the next series the test system is HCT-118 cells. Kind of series: Cell proliferation assay Method A (ATPlite), HCT-118. To be noted: 72 hours, read-out: antiproliferative activity IC50, HCT-118. Format: cell-based. On the procedure: as §1
Another series deals with Sk-Mel-28 cells. Kind of series: Cell proliferation assay Method A (ATPlite), Sk-Mel-28. Format: cell-based. To be noted: Homo sapiens, 72 hours, read-out: antiproliferative activity IC50, Sk-Mel-28. On the procedure:
as §1

Series [1] concerns HDACs (HeLa cell nuclear extracts). Kind of series: HDAC enzymatic activity, Biomol Color de Lys system. The class given is biochemical. In a few lines:
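IC50 from sigmoidal dose-response fits of fluorescence (Ex 350–380, Em 440–460 nm). Compounds in DMSO dilution series incubated 1 h at 25 °C with HeLa nuclear extract HDACs and colorimetric substrate, pH 8.0 Tris/Cl buffer with NaCl, KCl, MgCl2, before developer termination.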

Another series concerns BT-474 cells. Kind of series: Cell proliferation assay Method A (ATPlite), BT-474. To be noted: Homo sapiens, 72 hours, read-out: antiproliferative activity IC50, BT-474. The class given is cell-based. On the procedure:
as §1

Structures are written as SMILES.

The molecule `O=C(NO)c1cnc(NCc2cc3nc(-c4cccc5[nH]ncc45)nc(N4CCOCC4)c3s2)nc1` [Compound 53, 2-((2-(1H-indazol-4-yl)-4-morpholinothieno[3,2-d]pyrimidin-6-yl)methylamino)-N-hydroxypyrimidine-5-carboxamide] showed a melting point of 234 to 237 °C. The IC50 with H1993 cells lay within 100 to 1000 nM. In addition, the IC50 in the series with HCT-118 cells is 100 to 1000 nM. Besides, the IC50 in the series with Sk-Mel-28 cells was 100 to 1000 nM. The same molecule yielded an IC50 in series [1] below 100 nM. Moreover, the half-maximal inhibitory concentration (IC50) with BT-474 cells was below 100 nM.

As for `CN(Cc1cc2nc(-c3cccc4[nH]ncc34)nc(N3CCOCC3)c2s1)c1ncc(/C=C/C(=O)NO)cn1` [Compound 75], the 50% inhibitory concentration (IC50) (with H1993 cells; in the series with HCT-118 cells; in the series with Sk-Mel-28 cells; in series [1]; in the series on BT-474 cells) was 100 to 1000 nM each time.

As to `O=C(NO)c1cnc(N(CCO)Cc2cc3nc(-c4cccc5[nH]ncc45)nc(N4CCOCC4)c3s2)nc1` [Compound 86, 2-(((2-(1H-indazol-4-yl)-4-morpholinothieno[3,2-d]pyrimidin-6-yl)methyl)(2-hydroxyethyl)amino)-N-hydroxypyrimidine-5-carboxamide], the melting point was in the range of 190 to 194 °C. Moreover, in the series with HCT-118 cells, the concentration for half-maximal inhibition (IC50) was in the range of 100 to 1000 nM. In addition, the IC50 with Sk-Mel-28 cells fell in the range of 1000 to 10000 nM. In series [1], the IC50 is below 100 nM. For the same molecule, the IC50 in the series with BT-474 cells was in the range of 100 to 1000 nM.

Regarding `CC(=O)OCCN(Cc1cc2nc(-c3cccc4[nH]ncc34)nc(N3CCOCC3)c2s1)c1ncc(C(=O)NO)cn1` [Compound 87], the IC50 in the series on H1993 cells is 1000 to 10000 nM; with HCT-118 cells, 100 to 1000 nM; in the series on Sk-Mel-28 cells, 100 to 1000 nM; in series [1], below 100 nM; in the series with BT-474 cells, 1000 to 10000 nM.

Regarding `COCCN(Cc1cc2nc(-c3cccc4[nH]ncc34)nc(N3CCOCC3)c2s1)c1ncc(C(=O)NO)cn1` [Compound 90, 2-(((2-(1H-indazol-4-yl)-4-morpholinothieno[3,2-d]pyrimidin-6-yl)methyl)(2-methoxyethyl)amino)-N-hydroxypyrimidine-5-carboxamide], the IC50 in the series on H1993 cells was 1000 to 10000 nM; with HCT-118 cells, below 100 nM; in the series on BT-474 cells it was 100 to 1000 nM.

As to `O=C(NO)c1cnc(N(CCCO)Cc2cc3nc(-c4cccc5[nH]ncc45)nc(N4CCOCC4)c3s2)nc1` [Compound 91], the IC50 with H1993 cells was above 10000 nM; in the series with HCT-118 cells, 1000 to 10000 nM; in series [1], below 100 nM; with BT-474 cells it was 1000 to 10000 nM.

For the molecule `CCN(Cc1cc2nc(-c3cccc4[nH]ncc34)nc(N3CCOCC3)c2s1)c1ncc(C(=O)NO)cn1` [Compound 92], the IC50 in the series on HCT-118 cells is below 100 nM; in the series with Sk-Mel-28 cells, 100 to 1000 nM; in series [1], below 100 nM; in the series with BT-474 cells, below 100 nM.

As for `N#CCCN(Cc1cc2nc(-c3cccc4[nH]ncc34)nc(N3CCOCC3)c2s1)c1ncc(C(=O)NO)cn1` [Compound 99], the half-maximal inhibitory concentration (IC50) is above 10000 nM in the series with H1993 cells; above 10000 nM with HCT-118 cells; 100 to 1000 nM in the series with Sk-Mel-28 cells; below 100 nM in series [1]; 100 to 1000 nM in the series with BT-474 cells.

For the molecule `CN(Cc1cc2nc(-c3cccnc3)nc(N3CCOCC3)c2s1)c1ncc(C(=O)NO)cn1` [Compound 109, N-hydroxy-2-(methyl((4-morpholino-2-(pyridin-3-yl)thieno[3,2-d]pyrimidin-6-yl)methyl)amino)pyrimidine-5-carboxamide], the melting point fell in the range of 160 to 164 °C. In addition, the 50% inhibitory concentration (IC50) with H1993 cells was below 100 nM. In the series with HCT-118 cells, the half-inhibitory concentration (IC50) was below 100 nM. Further, the 50% inhibitory concentration (IC50) in series [1] is below 100 nM. The concentration for half-maximal inhibition (IC50) with BT-474 cells was below 100 nM.

In the case of `CN(Cc1cc2nc(-c3ccc(N)c(C#N)c3)nc(N3CCOCC3)c2s1)c1ncc(C(=O)NO)cn1` [Compound 280, 2-(((2-(4-Amino-3-cyanophenyl)-4-morpholinothieno[3,2-d]pyrimidin-6-yl)methyl)(methyl)amino)-N-hydroxypyrimidine-5-carboxamide], the melting point was 237 to 240 °C. Besides, in series [1], the IC50 was below 100 nM.

Molecule `CC(=O)c1cc(-c2nc(N3CCOCC3)c3sc(CN(C)c4ncc(C(=O)NO)cn4)cc3n2)ccc1N` [Compound 281, 2-{[2-(3-Acetyl-4-amino-phenyl)-4-morpholin-4-yl-thieno[3,2-d]pyrimidin-6-ylmethyl]-methyl-amino}-pyrimidine-5-carboxylic acid hydroxyamide] displayed a melting point of 156 to 158 °C. The molecule also gave a concentration for half-maximal inhibition (IC50) in series [1] below 100 nM.

Molecule `CN(Cc1cc2nc(-c3cc(F)c(N)c(F)c3)nc(N3CCOCC3)c2s1)c1ncc(C(=O)NO)cn1` [Compound 282, 2-(((2-(4-Amino-3,5-difluorophenyl)-4-morpholinothieno[3,2-d]pyrimidin-6-yl)methyl)(methyl)amino)-N-hydroxypyrimidine-5-carboxamide] gave a melting point of 190 to 193 °C. For the same molecule, the 50% inhibitory concentration (IC50) in series [1] is below 100 nM.

`CN(Cc1cc2nc(-c3ccc(N)c(CO)c3)nc(N3CCOCC3)c2s1)c1ncc(C(=O)NO)cn1` [Compound 285, 2-(((2-(4-Amino-3-(hydroxymethyl)phenyl)-4-morpholinothieno[3,2-d]pyrimidin-6-yl)methyl)(methyl)amino)-N-hydroxypyrimidine-5-carboxamide] displayed a melting point of 195 to 200 °C. The molecule further had an IC50 in series [1] below 100 nM.

As for `CN(Cc1cc2nc(-c3cccc(SCCO)c3)nc(N3CCOCC3)c2s1)c1ncc(C(=O)NO)cn1` [Compound 290, N-Hydroxy-2-(((2-(3-(2-hydroxyethylthio)phenyl)-4-morpholinothieno[3,2-d]pyrimidin-6-yl)methyl)(methyl)amino)pyrimidine-5-carboxamide], the melting point lay within 188 to 192 °C. Further, the concentration for half-maximal inhibition (IC50) in series [1] is below 100 nM.

`CC(O)c1ccc(F)c(-c2nc(N3CCOCC3)c3sc(CN(C)c4ncc(C(=O)NO)cn4)cc3n2)c1` (centres unmarked) [Compound 295, 2-(((2-(2-Fluoro-5-(1-hydroxyethyl)phenyl)-4-morpholinothieno[3,2-d]pyrimidin-6-yl)methyl)(methyl)amino)-N-hydroxypyrimidine-5-carboxamide] gave a melting point of 230 to 235 °C. The half-inhibitory concentration (IC50) in series [1] was below 100 nM.

Turning to `C[C@@H](O)c1cccc(-c2nc(N3CCOCC3)c3sc(CN(C)c4ncc(C(=O)NO)cn4)cc3n2)c1` [Compound 297, (R)—N-Hydroxy-2-(((2-(3-(1-hydroxyethyl)phenyl)-4-morpholinothieno[3,2-d]pyrimidin-6-yl)methyl)(methyl)amino)pyrimidine-5-carboxamide], the melting point lay in the range of 169 to 173 °C. Further, the IC50 in series [1] is below 100 nM.

As for `Nc1ccc(-c2nc(N3CCOCC3)c3sc(C(=O)NCC4CCN(c5ncc(C(=O)NO)cn5)CC4)cc3n2)cc1` [Compound 307, 2-(4-Aminophenyl)-N-((1-(5-(hydroxycarbamoyl)pyrimidin-2-yl)piperidin-4-yl)methyl)-4-morpholinothieno[3,2-d]pyrimidine-6-carboxamide], the melting point lay within 232 to 238 °C. The same molecule returned an IC50 in series [1] below 100 nM.

For `CNc1ccc(-c2nc(N3CCOCC3)c3sc(S(=O)(=O)NCC4CCN(c5ncc(C(=O)NO)cn5)CC4)cc3n2)cn1` [Compound 310, N-Hydroxy-2-(4-((2-(6-(methylamino)pyridin-3-yl)-4-morpholinothieno[3,2-d]pyrimidine-6-sulfonamido)methyl)piperidin-1-yl)pyrimidine-5-carboxamide], the melting point is 190 to 197 °C. In addition, in series [1], the concentration for half-maximal inhibition (IC50) is below 100 nM.

`CN(Cc1cc2nc(-c3ccc4[nH]c(C(F)(F)F)nc4c3)nc(N3CCOCC3)c2s1)c1ncc(C(=O)NO)cn1` [Compound 318] had a melting point above 300 °C. In addition, the concentration for half-maximal inhibition (IC50) in series [1] was below 100 nM.

The molecule `CS(=O)(=O)N1CCN(Cc2cc3nc(-c4ccc(OCCCCC(=O)NO)cc4)nc(N4CCOCC4)c3s2)CC1` [Compound 319, N-Hydroxy-5-(4-(6-((4-(methylsulfonyl)piperazin-1-yl)methyl)-4-morpholinothieno[3,2-d]pyrimidin-2-yl)phenoxy)pentanamide] showed a melting point of 140 to 144 °C. In addition, in series [1], the half-inhibitory concentration (IC50) was 100 to 1000 nM.

Regarding `CS(=O)(=O)N1CCN(Cc2cc3nc(-c4ccc(OCCCCCC(=O)NO)cc4)nc(N4CCOCC4)c3s2)CC1` [Compound 320, N-Hydroxy-6-(4-(6-((4-(methylsulfonyl)piperazin-1-yl)methyl)-4-morpholinothieno[3,2-d]pyrimidin-2-yl)phenoxy)hexanamide], the melting point lay in the range of 140 to 142 °C. Further, the IC50 in series [1] was 100 to 1000 nM.

Regarding `CS(=O)(=O)N1CCN(Cc2cc3nc(-c4ccc(OCCCCCCC(=O)NO)cc4)nc(N4CCOCC4)c3s2)CC1` [Compound 321, N-Hydroxy-7-(4-(6-((4-(methylsulfonyl)piperazin-1-yl)methyl)-4-morpholinothieno[3,2-d]pyrimidin-2-yl)phenoxy)heptanamide], the melting point lay in the range of 143 to 145 °C. Moreover, in series [1], the IC50 fell in the range of 100 to 1000 nM.
